Laboratory results taken from patent CN101784271A, “孕激素和(6s)-5-甲基四氢叶酸的组合在治疗子宫内膜异位症并同时减轻治疗副作用以及降低怀孕初期的先天畸形的风险中的应用” (priority 2007, dated 2008).

How the values were obtained:
[1] = tested on: ovulation (排卵); conditions: daily dose; no test or source given; cited from earlier work
[2] = cited from earlier work
[3] = attributed to partial androgenic action, not progestational activity; cited from earlier work
[4] = Clinical study in endometriosis patients, pain by visual analogue scale (VAS); format: in vivo, human; conditions: over 6 months
[5] = 2 mg dienogest daily, 24 weeks, endometriosis patients

CC(=O)O[C@]1(C(C)=O)CC[C@H]2[C@@H]3C=C(Cl)C4=CC(=O)[C@@H]5C[C@@H]5[C@]4(C)[C@H]3CC[C@@]21C [醋酸环丙孕酮]
ovulation inhibition dose [1]: 1 mg

CC(=O)O[C@]1(C(C)=O)CC[C@H]2[C@@H]3C=C(Cl)C4=CC(=O)CC[C@]4(C)[C@H]3CC[C@@]21C [醋酸氯地孕酮]
ovulation inhibition dose [1]: 1.7 mg

C#C[C@]1(O)CC[C@H]2[C@@H]3CCC4=Cc5oncc5C[C@]4(C)[C@H]3CC[C@@]21C [达那唑]
side effects of standard endometriosis treatment ([2]; human, in vivo): 显著的雄激素效应

C#C[C@]1(O)CC[C@H]2[C@@H]3CCC4=CC(=O)CC[C@@H]4[C@H]3CC[C@@]21CC [左炔诺孕酮]
effect on bone metabolism [3]: 对骨代谢的正面影响

C[C@]12CCC3=C4CCC(=O)C=C4CC[C@H]3[C@@H]1CC[C@@]2(O)CC#N [DNG]
intolerable menstruation [2, 5]: 没有报道不可耐受的月经
patients reporting irregular menstruation [2, 5]: ≤ 90%
treatment result compared with danazol or GnRH agonist [2, 5]: 相当
change in pain (VAS) at end of treatment compared with start of study ([4]; DNG oral 2 mg/d (124 patients) or LA 3.75 mg s.c. every 4 weeks (128 patients), endometriosis diagnosed by laparoscopy): -47.5 mm
statistical comparison of efficacy, DNG versus LA ([4]; DNG oral 2 mg/d vs LA 3.75 mg s.c. every 4 weeks): 不劣于LA
